From a melting point compilation (Tetko et al.; mined from patent text by program, amines drawn as free bases though some values may be those of a salt)

melting point [°C]	Structure (SMILES)
89 to 91	CCN(CC)C(=O)COc1ccc(C(=O)CCl)cc1
87 to 88	COC(=O)CCn1c(=O)n(CCN2CCN(c3cccc(C(F)(F)F)c3)CC2)c(=O)c2cscc21
131 to 133	CC(=O)OC1CSC(Oc2cccc(-c3cn(C)nc3C(F)(F)F)c2)C(OC(C)=O)C1OC(C)=O (stereo not given)
225	COc1ccc(-c2nc(N)ncc2-c2ccc(=O)[nH]n2)cc1OC
150 to 153	Cc1cc(C(F)(F)F)nc(N(C(N)=O)c2ccccc2C(F)(F)F)n1
207 to 208	CC(=O)OCC1Cc2c(c3cccnc3n(-c3ccccc3)c2=O)O1 (stereo not given)
144 to 146	Cc1cccc(C(=O)Cc2ccnc(-c3ccc(OCC(N)=O)cc3)c2)n1
109 to 112	COC1=C(OC)C(=O)C2=C(CCC(CCOc3ccc(-c4ccccc4)cc3)CC2)C1=O
112 to 114	O=C(Nc1ccccc1C(=O)c1ccc(OC(F)(F)F)cc1)c1ccncc1
271 to 273	COc1ccc(CNC(=O)c2nc3scc(COCc4ccc(C(=O)O)cc4)c3c(=O)[nH]2)cc1
102 to 105	CN(C)C1CCN(c2nc(N3CCOCC3)c3ncnc(N(CCCN)Cc4ccccc4)c3n2)CC1
175 to 176	CC(C)C(NC(=O)OCc1ccccc1)C(=O)NC(Cc1ccccc1)C(O)C(Cc1ccccc1)NC(=O)C(NC(=O)N1CCN(C)CC1)C(C)C (stereo not given)
267 to 269	CC(C)(C)OC(=O)Nc1ccc(-c2c[nH]c(=O)cn2)cc1
204 to 208	O=C(c1ccccc1)c1cccnc1-c1nc(NC2CCCCC2)c2ccccc2n1
38 to 39	C(C#CSCc1ccccc1)#CSCc1ccccc1
160 to 162	CCOC(=O)C(N=Nc1ccc(Br)cc1C(=O)c1ccccn1)NC(=O)CCl (stereo not given)
217	CCOC(=O)c1c(Cl)c2cc(F)cnc2[nH]c1=O
148 to 150	CC1=CC(O)C(OC(=O)c2ccc([N+](=O)[O-])cc2)C(C)(C)CC1=O (stereo not given)
58 to 61	COC(=O)CCc1ccc(CCNC(=O)c2cc(Cl)ccc2OC)cc1
128 to 130	CC(=O)Oc1cc(C)ccc1C1CCN(CCCCNC(=O)c2ccc(-c3ccc(C#N)cc3)cc2)CC1
84 to 85	CCCCCCCCCCCCCCCCOCC(O)CN1CCC(C)CC1 (stereo not given)
45 to 47	CCN(CC)CCCC(=O)O
213 to 216	O=C(O)Cc1ccc(-c2nc3ccccc3o2)cc1F
198 to 204	Nc1ccc2c(C(F)(F)F)cc(C(F)(F)F)nc2n1

melting point [°C]	Structure (SMILES)
127 to 129	Cc1nc2sccn2c(=O)c1Br
92 to 96	CC(=O)OC(Cn1cncn1)c1ccc(Cl)cc1Cl (stereo not given)
55 to 58	CCOC(=O)c1ccc(CSc2nnc(C)s2)cc1
233 to 234	CCC(=O)c1cc2n(c(=O)c1C)Cc1cc3ccccc3nc1-2
115 to 118	CCCn1c(=O)c2c(C(=O)OCCN(C)C)ncn2c2ccccc21
68 to 70	CCOC(=O)CC(C#N)(CC(=O)OCC)c1ccc(F)cc1
159 to 162	Cc1ccc(C(=O)Oc2ccc(C(CN(C)C)C3(O)CCCCC3)cc2)cc1 (stereo not given)
74 to 76.5	CCOC(=O)N1CC[C@H](Oc2cccc(F)c2)[C@H](c2ccccc2)C1 (relative stereo)
103	CC(=O)OCC1OC(c2nc(C(N)=O)cs2)C(OC(C)=O)C1OC(C)=O (stereo not given)
161 to 164	COc1nc(N)nc(C(F)(F)F)n1
176 to 178	ClC(Cl)(Cl)c1nnc(C=Cc2ccc(C=Cc3ccccc3)cc2)o1
124 to 127	CSc1ncc(CO)c(N)n1
178 to 179	Cc1ccc(-c2ccc3c(c2)C=C(C(=O)Nc2ccc(CN(C)C4CCOCC4)cc2)CC(c2ccccc2)O3)cc1 (stereo not given)
90 to 91.5	CCOC(=O)CN1C(=O)COc2cc(F)ccc21
156 to 157	COc1cc2cc(-c3ccccc3C)sc2c(Cl)c1Cl
97 to 99	COc1ccc2c(c1)OCN(CCO[N+](=O)[O-])C2=O
135 to 137	CC(=O)Nc1nc(CS(=O)(=O)c2ccc(N)cc2)cs1
269 to 270	c1cnc(-c2n[nH]c(-c3cnccn3)n2)cn1
222 to 227	CCNC1CN(c2c(F)cc3c(=O)c(C(=O)O)cn(C4CC4)c3c2F)C1
93 to 94	CCOC(=O)C1=CC(=O)CC(c2ccc(Cl)cc2)N1 (stereo not given)
87 to 88	C=CCOc1cc2c(cc1C=CC)N(CC=C(C)C)C(=O)CC2
126 to 127	CCOC(=O)n1c(SC(F)(F)C(F)F)nc(-c2ccccc2)c1-c1ccccc1
109 to 111	CNC(=O)C(=NOC)c1ccccc1ON=C(C)c1cccc(C)c1
107	CS(=O)(=O)N1CCN([C@@H](CNS(=O)(=O)c2ccc(OCc3noc4ccccc34)cc2)C(=O)NO)CC1

melting point [°C]	Structure (SMILES)
129 to 130	COc1ccc(Br)cc1CN1CCC(=O)C(C(c2ccc(F)cc2)c2ccc(F)cc2)C1 (stereo not given)
148 to 150	Cc1ccccc1N1CCc2c(C)nc3ccccc3c21
202 to 205	COc1nn(-c2ccnc(N[C@H]3CC[C@H](O)CC3)n2)c2ccccc12
159 to 161	COc1ccc(CCNC(=O)C2=C(C(=O)Nc3cc(OC4CCCC4)c(Cl)cc3F)CCCC2)cc1OC
99.5 to 101	CS(=O)(=O)c1cccc(S(N)(=O)=O)c1
161 to 164	Cc1c(SCc2ccsc2)ccnc1CSc1nc2ccccc2[nH]1
89	Brc1ccc(-c2ccc(Br)cc2I)c(I)c1
55 to 57	Cc1cccc(C2(C)OC(C)C(C)O2)c1NC(=O)CCl (stereo not given)
210 to 212	CCN1Cc2c(cc3ccc4c(c3c2-c2ccc3c(c2)OCO3)OCO4)C1=O
133 to 134	CSc1ccc(F)cc1C(=O)Cn1cccc1
185 to 186	CNC(=O)CCc1c(-c2ccccc2)n(C)c(=O)c2ccccc12
171 to 172	Cc1nc(-n2ccc(N)cc2=O)sc1C(=O)NCc1ccccc1
205 to 210	CCn1cc(C2(c3cccc(-c4cncc(Cl)c4)c3)N=C(N)N(C)C2=O)cn1 (stereo not given)
233 to 234	Cc1cc2c(c3ccc(=O)[nH]c13)OC(CNC(=O)CCNC(=O)OCc1ccccc1)C2 (stereo not given)
169 to 171	CCOC(=O)c1cn(C2CCCCC2)c2cc(I)ccc2c1=O
253 to 255	CC(=O)N1N=C(c2ccc([N+](=O)[O-])c(C)c2)c2cc3c(cc2CC1(C)C#N)OCO3 (stereo not given)
> 280	Cn1nc2ccc(S)nn2c1=O
121 to 123	Nc1ccc(C(O)(C(F)(F)F)C(F)(F)F)cc1S
120 to 122	Cn1c(C(F)(F)F)cc(=O)n(-c2cc(OCOc3ccc(Cl)cc3)c(Cl)cc2F)c1=O
116 to 119	C[C@@H]1Cc2ccsc2[C@H](C)N1CCNS(=O)(=O)c1ccc([N+](=O)[O-])cc1 (relative stereo)
140 to 141	O=C(O)CCc1conc1-c1ccc(F)c(Cl)c1
209 to 211	Cc1c(N2CCN(Cc3ccccc3)CC2)c(F)cc2c(=O)c(C(=O)O)cn(C3CC3)c12
66.5	CC(O)c1cccc(-c2ccc(CC34CCCN3C(=O)N(c3cc(Cl)cc(Cl)c3)C4=O)cc2)c1 (stereo not given)
72 to 74	COC(=O)c1ccc(Cl)c([N+](=O)[O-])c1Cl

melting point [°C]	Structure (SMILES)
52 to 56.5	Cc1ccc(S(=O)(=S)OCc2ccccc2)cc1 (stereo not given)
128 to 135	CCCn1c(=O)cc(S(=O)(=O)CCC)n(Cc2ccc(-c3ccccc3-c3nnn[nH]3)cc2)c1=O
78 to 79	CC(C)(C)N(Cc1ccccc1)CC(O)c1cc(OCc2ccccc2)cc(OCc2ccccc2)c1 (stereo not given)
179 to 181	CN(C)c1cc(CC(C#N)CNc2ccccc2)cc(N(C)C)c1N(C)C (stereo not given)
115 to 123	O=c1c2c(N3CCNCC3)cc(Cl)cc2n(Cc2ccccc2)c(=O)n1Cc1ccccc1
142 to 144	Cc1c(OCC(F)(F)F)ccnc1CSc1nc2ccccc2[nH]1
151 to 155	CC1(C)SC2C(N)C(=O)N2C1NC(=O)OCC(Cl)(Cl)Cl (stereo not given)
178 to 180	CC(=S)NC[C@H]1CN(c2ccc(N3CCC(C#N)(C(C#N)C#N)CC3)c(F)c2)C(=O)O1
113 to 115	COc1cc(N)c(Cl)cc1C(=O)NCC1CCN(CCCCCCOc2ccccc2)CC1
204	CC(C)C(=O)N[C@H]1CC[C@H](CCN2CCN(c3nccc4c3OCC4)CC2)CC1
112 to 114	COC(=O)C1c2ccc(OCc3ccccc3)cc2CCN1CC(=O)N1CCC(c2ccccc2)CC1 (stereo not given)
152 to 154	CCn1c2ccccc2c2cc(N(c3ccccc3)c3ccccc3)ccc21
110 to 111	COC(=O)C1C=CCn2c(=O)n(CSC(C)=O)c(=O)n21 (stereo not given)
74	CCCCCC1C=CC(c2ccc(Br)cc2)=CC1 (stereo not given)
183 to 184	CSC(=N)Nc1c(C)cccc1Cl
130 to 132	Cc1ccc(S(=O)(=O)c2ccc3c(c2)CCCC3)cc1
163	Cn1ncnc1COc1nn2c(-c3c(F)cccc3F)nncc2c1-c1ccccc1F
77	CCOC(=O)C(C)Oc1ccc(OCc2ccccc2)c(F)c1 (stereo not given)
229	C=C1CCCC2CCC3C(CCC4(C)C3C(C#N)C35OCCOC43OCCO5)C12C (stereo not given)
175 to 176	CCCn1nc2c(N)nc3ccccc3c2c1CCc1ccccc1
285	Cc1cc(O)n(C)c(=O)c1C#N
180 to 182	Cc1cc(Cl)cc(NC(=O)Cc2ccc(OC3(C(=O)O)CCCC3C)cc2)c1 (stereo not given)

Structure (SMILES)	melting point [°C]
O=C1C=C(NC(=O)C(=O)c2cn(Cc3c(F)c(F)c(F)c(F)c3F)c3ccccc23)CO1	280 to 282
[N-]=[N+]=NCC1OC(n2c(N=[N+]=[N-])nc3c(N)ncnc32)C(O)C1O (stereo not given)	128 to 130
O=C(CP(=S)(c1ccccc1)c1ccccc1)c1ccccc1	83 to 84
CC(=O)OC1CCC2(C)C(=CCC3C2CCC2(C)C3CC(OC(C)=O)C2OC(C)=O)C1 (stereo not given)	127 to 129
CCC(Oc1c(F)ccc(C)c1F)C1=NCCN1 (stereo not given)	70.5 to 71
CC1CC2CC(C)(CN2)C1(C)C(=O)C=CCO (stereo not given)	72 to 75
